The source of these data is PubChem BioAssay AID248 (DTP/NCI, 2004).

Toxic doses and inconclusive results are not listed.

This assay deals with L1210 leukemia ip in BDF1 mice, survival T/C. The experiment in a line: NCI In Vivo Anticancer Drug Screen. Data for tumor model L1210 Leukemia (intraperitoneal) in B6D2F1 (BDF1) mice. The note with it: endpoint: mean survival time, higher = longer survival. The gist of the method:
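Mice bearing the transplanted tumor received compound or vehicle. Survival of the treated group was divided by that of the vehicle-treated control group to give the ratio.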

Where [1] appears, read: dose: 25.0 mg/kg/injection, schedule: Q04DX002 (ip), vehicle: saline.
Where [2] appears, read: dose: 50.0 mg/kg/injection, schedule: Q04DX002 (ip), vehicle: saline.
Where [3] appears, read: dose: 50.0 mg/kg/injection, schedule: Q01DX001 (ip), vehicle: saline.
[4] abbreviates: dose: 100.0 mg/kg/injection, schedule: Q01DX001 (ip), vehicle: saline.
Setting [5] is: dose: 200.0 mg/kg/injection, schedule: Q01DX001 (ip), vehicle: saline.
Where [6] appears, read: dose: 100.0 mg/kg/injection, schedule: Q04DX003 (ip), vehicle: saline with Tween-80.
[7] abbreviates: dose: 25.0 mg/kg/injection, schedule: Q01DX009 (ip), vehicle: saline with Tween-80.

Take `ClC1=C(Cl)[C@@]2(Cl)[C@H]3[C@H]4C[C@H]([C@@H]5O[C@H]45)[C@H]3[C@@]1(Cl)C2(Cl)Cl`: the T/C is 102 % of control (dose: 1.0 mg/kg/injection, schedule: Q01DX009 (ip), vehicle: acetone); 93 % of control (dose: 2.0 mg/kg/injection, schedule: Q01DX009 (ip), vehicle: acetone); 96 % of control (dose: 4.0 mg/kg/injection, schedule: Q01DX009 (ip), vehicle: acetone); 86 % of control (dose: 8.0 mg/kg/injection, schedule: Q01DX009 (ip), vehicle: acetone); 102 % of control (dose: 25.0 mg/kg/injection, schedule: Q01DX001 (ip), vehicle: acetone).

For the compound `C[AsH](C)CC[AsH](C)C.C[AsH](C)CC[AsH](C)C.C[AsH](C)CC[AsH](C)C.[Ni]`, the T/C under setting [1] is 103 % of control and the T/C under setting [2] is 109 % of control.

As to `CCCNC(=O)/C=C/C(=O)NCCC`, the T/C was 100 % of control (dose: 100.0 mg/kg/injection, schedule: Q04DX003 (ip), vehicle: saline); 100 % of control (dose: 200.0 mg/kg/injection, schedule: Q04DX003 (ip), vehicle: saline); 100 % of control (dose: 400.0 mg/kg/injection, schedule: Q04DX003 (ip), vehicle: saline).

For the compound `Cc1cc(N)c(C(=O)O)cc1C`, the T/C by setting is: under setting [3], 104 % of control; under setting [4], 107 % of control; under setting [5], 104 % of control; (dose: 400.0 mg/kg/injection, schedule: Q01DX001 (ip), vehicle: saline) 104 % of control.

Regarding `C[n+]1cccc(C(=O)NN=C2CCCCC2)c1`, the T/C (dose: 100.0 mg/kg/injection, schedule: Q01DX001 (ip), vehicle: saline with Tween-80) is 93 % of control; the T/C (dose: 200.0 mg/kg/injection, schedule: Q01DX001 (ip), vehicle: saline with Tween-80) is 102 % of control; the T/C (dose: 400.0 mg/kg/injection, schedule: Q01DX001 (ip), vehicle: saline with Tween-80) is 94 % of control.

Consider `c1ccc2cc(C3OCCCO3)ccc2c1`, for which the T/C reads like this: (dose: 100.0 mg/kg/injection, schedule: Q01DX001 (ip), vehicle: Klucel (hydroxypropylcellulose) (HPC)) 94 % of control; (dose: 200.0 mg/kg/injection, schedule: Q01DX001 (ip), vehicle: Klucel (hydroxypropylcellulose) (HPC)) 100 % of control; (dose: 400.0 mg/kg/injection, schedule: Q01DX001 (ip), vehicle: Klucel (hydroxypropylcellulose) (HPC)) 100 % of control.

On to `N#CC(Oc1ccccc1)c1ccccc1` (stereo not given), for which the T/C is 98 % of control under setting [6] and 104 % of control (dose: 400.0 mg/kg/injection, schedule: Q04DX003 (ip), vehicle: saline with Tween-80).

As for `Cc1cc(C)[n+]2ccccc2n1`, the T/C was 102 % of control (dose: 75.0 mg/kg/injection, schedule: Q01DX001 (ip), vehicle: saline) and 98 % of control (dose: 150.0 mg/kg/injection, schedule: Q01DX001 (ip), vehicle: saline).

On to `CC(C)Nc1ccc(Nc2ccc(NC(C)C)cc2)cc1`, for which the T/C by setting is: (dose: 1.56 mg/kg/injection, schedule: Q04DX003 (ip), vehicle: alcohol) 102 % of control; (dose: 3.12 mg/kg/injection, schedule: Q01DX009 (ip), vehicle: alcohol) 98 % of control; (dose: 3.12 mg/kg/injection, schedule: Q04DX003 (ip), vehicle: alcohol) 109 % of control; (dose: 6.25 mg/kg/injection, schedule: Q01DX009 (ip), vehicle: alcohol) 94 % of control; (dose: 6.25 mg/kg/injection, schedule: Q04DX003 (ip), vehicle: alcohol) 105 % of control; (dose: 12.5 mg/kg/injection, schedule: Q01DX009 (ip), vehicle: alcohol) 96 % of control. For the same compound, the T/C (dose: 12.5 mg/kg/injection, schedule: Q04DX003 (ip), vehicle: alcohol) is 95 % of control and the T/C (dose: 18.0 mg/kg/injection, schedule: Q01DX009 (ip), vehicle: alcohol) was 104 % of control.

With `CCCCCCCCCCCC1=NCCN1`, the T/C (dose: 6.25 mg/kg/injection, schedule: Q01DX009 (ip), vehicle: saline) is 91 % of control; the T/C (dose: 12.5 mg/kg/injection, schedule: Q01DX009 (ip), vehicle: saline) was 91 % of control; the T/C (dose: 12.5 mg/kg/injection, schedule: Q04DX003 (ip), vehicle: saline) is 89 % of control; the T/C under setting [7] is 93 % of control; the T/C (dose: 25.0 mg/kg/injection, schedule: Q01DX009 (ip), vehicle: saline) was 93 % of control; the T/C (dose: 25.0 mg/kg/injection, schedule: Q04DX003 (ip), vehicle: saline with Tween-80) was 97 % of control. Besides, the T/C by setting is: (dose: 25.0 mg/kg/injection, schedule: Q04DX003 (ip), vehicle: saline) 94 % of control; (dose: 50.0 mg/kg/injection, schedule: Q01DX009 (ip), vehicle: saline) 91 % of control; (dose: 50.0 mg/kg/injection, schedule: Q04DX003 (ip), vehicle: saline with Tween-80) 97 % of control; (dose: 50.0 mg/kg/injection, schedule: Q04DX003 (ip), vehicle: saline) 94 % of control; (dose: 100.0 mg/kg/injection, schedule: Q01DX009 (ip), vehicle: Klucel (hydroxypropylcellulose) (HPC)) 100 % of control; under setting [6], 100 % of control. Further, the T/C was 96 % of control (dose: 200.0 mg/kg/injection, schedule: Q01DX009 (ip), vehicle: Klucel (hydroxypropylcellulose) (HPC)) and 88 % of control (dose: 400.0 mg/kg/injection, schedule: Q01DX009 (ip), vehicle: Klucel (hydroxypropylcellulose) (HPC)).

Turning to `COc1cc(NS(C)(=O)=O)ccc1Nc1c2ccc(Cl)cc2nc2c(OC)cccc12`, the T/C reads like this: (dose: 6.25 mg/kg/injection, schedule: Q01DX009 (ip), vehicle: water) 155 % of control; (dose: 12.5 mg/kg/injection, schedule: Q01DX009 (ip), vehicle: water) 98 % of control; (dose: 13.0 mg/kg/injection, schedule: Q04DX003 (ip), vehicle: saline with Tween-80) 155 % of control; (dose: 20.0 mg/kg/injection, schedule: Q04DX003 (ip), vehicle: saline with Tween-80) 247 % of control; (dose: 29.0 mg/kg/injection, schedule: Q04DX003 (ip), vehicle: saline with Tween-80) 253 % of control; (dose: 30.0 mg/kg/injection, schedule: Q04DX003 (ip), vehicle: saline with Tween-80) 296 % of control. The T/C (dose: 44.0 mg/kg/injection, schedule: Q04DX003 (ip), vehicle: saline with Tween-80) was 260 % of control; the T/C (dose: 66.0 mg/kg/injection, schedule: Q04DX003 (ip), vehicle: saline with Tween-80) is 153 % of control; the T/C under setting [6] is 89 % of control.

Take `CC1([N+](=O)[O-])COP(=O)(NC2CCCC2)OC1` (stereo not given): the T/C is 106 % of control under setting [3], 108 % of control under setting [4] and 102 % of control under setting [5].

Turning to `C(=Nc1cnc2ccccc2c1)c1ccnc2ccccc12`, the T/C reads like this: (dose: 50.0 mg/kg/injection, schedule: Q01DX001 (ip), vehicle: carboxymethylcellulose (CMC)) 95 % of control; (dose: 100.0 mg/kg/injection, schedule: Q01DX001 (ip), vehicle: carboxymethylcellulose (CMC)) 104 % of control; (dose: 200.0 mg/kg/injection, schedule: Q01DX001 (ip), vehicle: carboxymethylcellulose (CMC)) 107 % of control; (dose: 400.0 mg/kg/injection, schedule: Q01DX001 (ip), vehicle: carboxymethylcellulose (CMC)) 95 % of control.

On to `Cn1c(=O)n(C)c2nccnc21`, for which the T/C (dose: 12.5 mg/kg/injection, schedule: Q04DX002 (ip), vehicle: saline) is 108 % of control; the T/C under setting [1] was 105 % of control; the T/C under setting [2] is 94 % of control.

Take `O=CNC(Cc1cccc(N(CCCl)CCCl)c1)C(=O)O` (stereo not given): the T/C by setting is: (dose: 8.0 mg/kg/injection, schedule: Q01DX Z (ip), vehicle: methylcellulose (MC)) 106 % of control; (dose: 12.0 mg/kg/injection, schedule: Q01DX Z (ip), vehicle: methylcellulose (MC)) 95 % of control; (dose: 18.0 mg/kg/injection, schedule: Q01DX Z (ip), vehicle: methylcellulose (MC)) 103 % of control; (dose: 27.0 mg/kg/injection, schedule: Q01DX Z (ip), vehicle: methylcellulose (MC)) 97 % of control.

Take `CCCCSc1cc(C)nc2ccccc12`: the T/C runs as follows: under setting [7], 100 % of control; (dose: 25.0 mg/kg/injection, schedule: Q04DX002 (ip), vehicle: saline with Tween-80) 93 % of control; (dose: 50.0 mg/kg/injection, schedule: Q01DX009 (ip), vehicle: saline with Tween-80) 96 % of control; (dose: 50.0 mg/kg/injection, schedule: Q04DX002 (ip), vehicle: saline with Tween-80) 96 % of control; (dose: 100.0 mg/kg/injection, schedule: Q01DX009 (ip), vehicle: saline with Tween-80) 93 % of control; (dose: 100.0 mg/kg/injection, schedule: Q04DX002 (ip), vehicle: saline with Tween-80) 93 % of control.
